Results reported in PMC3113660 (Journal of medicinal chemistry, 2010).
Read-outs that look alike come from different tables or passages of the source.

Tests used:
[1] = system: Plasmodium falciparum (K1, resistant to chloroquine); assay: In vitro growth inhibition assay of P. falciparum; format: cell-based; details: for IC50: Plasmodium falciparum
P. berghei [2] = assay: P. berghei mouse model; format: in vivo; details: subcutaneously at 30 mg/kg daily for four days; data not shown
L6 rat myoblast cells = assay: In vitro cytotoxicity assay; format: cell-based; details: L6 cells; relative to 5,5′-disubstituted analogue 1
[3] = system: Leishmania donovani (MHOM/SD/62/1S-CL2D) axenic amastigotes; assay: Antileishmanial assay; format: cell-based; details: in vitro, axenic amastigotes
[4] = system: T. brucei rhodesiense STIB900; format: in vivo, mice; details: number of mice that survive and are parasite free for 60 days
P. berghei [5] = details: mice; cited from earlier work
[6] = In vitro cytotoxicity assay; format: cell-based, rat; details: rat

Cl.Cl.Oc1cc(C2=NCCN2)ccc1-c1cn(-c2ccc(C3=NCCN3)cc2)nn1 [Compound 60, 4-[4-(4,5-Dihydro-1H-imidazol-2-yl)-2-hydroxyphenyl]-1-[4-(4,5-dihydro-1H-imidazol-2-yl)phenyl]-1H-1,2,3-triazole Dihydrochloride]
times as active against P. falciparum ([1]; relative to diimidazoline 48): 3 times
times greater antiplasmodial selectivity index SIP ([1]; relative to pentamidine): ~400 times
effect on blood parasite count (P. berghei [2]): did not reduce the blood parasite count

Cl.Cl.N=C(N)c1ccc(-n2cc(-c3cccc(C(=N)N)c3)nn2)cc1 [Compound 16, 1-(4-Amidinophenyl)-4-(3-amidinophenyl)-1H-1,2,3-triazole Dihydrochloride]
fold increased cytotoxicity (L6 rat myoblast cells): ~25 fold
activity against L. donovani (in words) [3]: active
cures ([4]; 4 × 5 mg/kg ip): curing one out of four mice

Cl.Cl.N=C(N)c1ccc(-c2cn(-c3ccc(C(=N)N)cc3)nn2)cc1 [Compound 46, 1,4-Bis(4-amidinophenyl)-1H-1,2,3-triazole Dihydrochloride]
fold increased cytotoxicity (L6 rat myoblast cells): ~25 fold
IC50 ([1]; K1, read-out: antiplasmodial IC50, P. falciparum, in vitro): < 58 nM
cures ([4]; 4 × 0.5 mg/kg ip): no cures

N=C(N)c1ccc(-c2ccc(-c3ccc(C(=N)N)cc3)o2)cc1 [furamidine, 2,5-bis(4-amidinophenyl)furan]
activity against trophozoite-induced P. berghei infection (P. berghei [5]): inactive

CCN(CC)CCCC(C)Nc1ccnc2cc(Cl)ccc12 (stereo not drawn) [chloroquine, reference compound]
IC50 at 70 h [6]: 117000 nM
IC50 ([1]; K1, read-out: P. falciparum IC50): 124 nM
